# Results reported in patent US20250059174A1, “Pharmaceutical Compounds and Compositions as C-Kit Kinase Inhibitors” (Enanta Pharmaceuticals, Inc., priority 2023, published 2025).
# Target: Recombinant human c-KIT kinase (Homo sapiens (Human), UniProt P10721)
# Assay: c-KIT kinase chemiluminescence assay (ADP-Glo)
# Assay type: biochemical
# Conditions: ATP 50 μM
# In short: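 Recombinant human c-KIT preincubated 30 min at RT in 40 mM Tris pH 7.5, 20 mM MgCl2, 0.1 mg/mL BSA, 50 μM DTT, then reacted 2 h at RT with ATP and polyEY substrate. ADP-Glo luminescence readout; activity normalized to high/low controls, IC50 and Hill coefficient from inhibitor-versus-normalized-response fit.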
# Chain of Recombinant human c-KIT kinase (P10721 26-976): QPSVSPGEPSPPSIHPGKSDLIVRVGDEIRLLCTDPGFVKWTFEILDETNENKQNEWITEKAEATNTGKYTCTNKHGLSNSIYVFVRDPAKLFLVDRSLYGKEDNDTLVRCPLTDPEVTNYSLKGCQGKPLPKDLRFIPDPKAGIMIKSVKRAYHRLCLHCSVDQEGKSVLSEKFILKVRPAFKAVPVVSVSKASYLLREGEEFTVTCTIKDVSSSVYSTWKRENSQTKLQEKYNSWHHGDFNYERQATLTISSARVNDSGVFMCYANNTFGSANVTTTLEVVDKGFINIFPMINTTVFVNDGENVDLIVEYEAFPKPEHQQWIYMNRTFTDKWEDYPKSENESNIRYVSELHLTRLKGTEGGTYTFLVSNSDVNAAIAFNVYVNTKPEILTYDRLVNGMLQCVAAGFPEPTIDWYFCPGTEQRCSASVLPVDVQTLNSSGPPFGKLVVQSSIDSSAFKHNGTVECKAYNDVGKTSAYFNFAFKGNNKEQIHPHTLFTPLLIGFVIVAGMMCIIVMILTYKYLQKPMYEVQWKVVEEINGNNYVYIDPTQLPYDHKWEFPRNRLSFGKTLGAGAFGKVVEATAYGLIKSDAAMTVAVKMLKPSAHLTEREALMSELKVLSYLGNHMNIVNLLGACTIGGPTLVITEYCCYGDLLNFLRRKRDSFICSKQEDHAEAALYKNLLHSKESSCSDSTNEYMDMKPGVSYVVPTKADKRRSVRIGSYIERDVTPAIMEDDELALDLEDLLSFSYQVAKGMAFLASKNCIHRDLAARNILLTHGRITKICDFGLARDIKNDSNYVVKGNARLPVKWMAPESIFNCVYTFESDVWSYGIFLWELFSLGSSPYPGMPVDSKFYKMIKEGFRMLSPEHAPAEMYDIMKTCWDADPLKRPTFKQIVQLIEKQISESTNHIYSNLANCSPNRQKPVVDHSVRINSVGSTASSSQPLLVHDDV
row,Compound,IC50 [µM]
1,COC(=O)N1CC(c2nc(-c3ccc(C)c(NC(=O)c4cnn5ccc(N6CC7(C6)CC(O)(C(F)F)C7)cc45)c3)no2)C1 [Example 281-53],< 0.1
2,Cc1ncc(-c2noc([C@H]3CC34CC4)n2)cc1NC(=O)c1cnn2ccc(N3CC4(C3)CC(O)(C(F)F)C4)cc12 [Example 281-16],< 0.1
3,Cc1ncc(-c2noc([C@H]3C[C@@H]3F)n2)cc1NC(=O)c1cnn2ccc(N3CC4(COC4)C3)cc12 [Example 268],0.1 to 1
4,Cc1ccc(-c2ncc(C3CC3)cn2)cc1NC(=O)c1cnn2cc(-c3cn(C(F)F)nn3)ccc12 [Example 132-13],< 0.1
5,Cc1ccc(-c2noc([C@H]3C[C@@H]3F)n2)c(F)c1NC(=O)c1cnn2ccc(N3CC4(COC4)C3)cc12 [Example 281-65],< 0.1
6,Cc1ccc(-c2noc([C@H]3C[C@@H]3F)n2)cc1NC(=O)c1cnn2ccc(N3CCC4(CC3)CC(C)(O)C4)cc12 [Example 184],< 0.1
7,COCCn1cc(-c2ccn3ncc(C(=O)Nc4cc(-c5noc([C@H]6C[C@@H]6F)n5)ccc4C)c3c2)cn1 [Example 153],< 0.1
8,CC(=O)N1CCC(c2nc(-c3cnc(C)c(NC(=O)c4cnn5ccc(N6CC7(COC7)C6)cc45)c3)no2)C1 (stereo not shown) [Example 281-74],> 1
9,Cc1ccc(-c2nc3n(n2)CCN(C(=O)C2CC2)C3)cc1NC(=O)c1cnn2ccc(N3CC4(C3)CC(O)(C(F)F)C4)cc12 [Example 323],0.1 to 1

# Now from value to compound:
row,IC50 [µM],Compound
1,> 1,Cc1ccc(-c2noc([C@H]3C[C@@H]3F)n2)cc1NC(=O)c1ccc2c(c1)CC(=O)N2 [Example 98-6]
2,< 0.1,Cc1ccc(-c2noc([C@H]3C[C@@H]3F)n2)cc1NC(=O)c1cnn2ccc(-c3c(C)nn(C4COC4)c3C)cc12 [Example 145]
3,< 0.1,Cc1ccc(-c2noc([C@H]3C[C@@H]3F)n2)cc1NC(=O)c1cnn2ccc(N3CCN(C(=O)C(F)(F)F)[C@H](C)C3)cc12 [Example 241-4]
4,< 0.1,Cc1ccc(-c2noc([C@H]3C[C@@H]3F)n2)cc1NC(=O)c1cnn2ccc(-c3ccc(N4CC(F)(F)C4)nc3C)cc12 [Example 171-17]
5,< 0.1,Cc1ccc(-c2noc([C@H]3C[C@@H]3F)n2)cc1NC(=O)c1cnn2ccc(N3CCO[C@@H](C)C3)cc12 [Example 215]
6,0.1 to 1,Cc1ccc(-c2noc([C@H]3C[C@@H]3F)n2)cc1NC(=O)c1cnc(-c2ccnc(N)c2)o1 [Example 290]
7,< 0.1,Cc1ccc(-c2noc([C@H]3C[C@@H]3F)n2)cc1NC(=O)c1cnn2ccc(-c3cnn(C4COC4)c3)cc12 [Example 136]
8,> 1,Cc1ccc(-c2noc([C@H]3C[C@@H]3F)n2)cc1NC(=O)c1cnc(-c2cccnc2)o1 [Example 285]
9,0.1 to 1,Cc1cc(F)c(-c2noc([C@H]3C[C@@H]3F)n2)cc1NC(=O)c1cnc(-c2ccc3[nH]ncc3c2)o1 [Example 308-11]
10,< 0.1,Cc1ccc(-c2noc([C@H]3C[C@@H](C(F)(F)F)C3)n2)cc1NC(=O)c1cnc(-c2ccc3c(c2)CC(=O)N3)o1 [Example 308-2]
11,< 0.1,Cc1ncc(-c2noc([C@H]3C[C@@H](C(F)(F)F)C3)n2)cc1NC(=O)c1cnn2ccc(N3CC4(C3)CC(O)(C(F)F)C4)cc12 [Example 281-62]

# System: M-07e cells
# Assay: M-07e cellular assay (SCF-mediated cell proliferation)
# Assay type: cell-based
# Conditions: Homo sapiens, 72 hours, CellTiter Glo
# In short: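 EC50 values reflect inhibition of SCF-driven proliferation, with SCF at EC90 and a 72 h compound exposure, measured as CellTiter Glo luminescence. Growth is scaled between no-SCF (0%) and untreated (100%) wells.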
row,Compound,EC50 [µM]
1,Cc1ccc(-c2noc([C@H]3C[C@@H]3F)n2)cc1NC(=O)c1ccc2c(c1)CC(=O)N2 [Example 98-6],> 1
2,COC(=O)N1CC(c2nc(-c3ccc(C)c(NC(=O)c4cnn5ccc(N6CC7(C6)CC(O)(C(F)F)C7)cc45)c3)no2)C1 [Example 281-53],< 0.1
3,Cc1ccc(-c2noc([C@H]3C[C@@H]3F)n2)cc1NC(=O)c1cnn2ccc(-c3c(C)nn(C4COC4)c3C)cc12 [Example 145],< 0.1
4,Cc1ncc(-c2noc([C@H]3CC34CC4)n2)cc1NC(=O)c1cnn2ccc(N3CC4(C3)CC(O)(C(F)F)C4)cc12 [Example 281-16],< 0.1
5,Cc1ccc(-c2noc([C@H]3C[C@@H]3F)n2)cc1NC(=O)c1cnn2ccc(N3CCN(C(=O)C(F)(F)F)[C@H](C)C3)cc12 [Example 241-4],< 0.1
6,Cc1ccc(-c2noc([C@H]3C[C@@H]3F)n2)cc1NC(=O)c1cnn2ccc(-c3ccc(N4CC(F)(F)C4)nc3C)cc12 [Example 171-17],< 0.1
7,Cc1ccc(-c2noc([C@H]3C[C@@H]3F)n2)cc1NC(=O)c1cnn2ccc(N3CCO[C@@H](C)C3)cc12 [Example 215],< 0.1
8,Cc1ccc(-c2noc([C@H]3C[C@@H]3F)n2)cc1NC(=O)c1cnc(-c2ccnc(N)c2)o1 [Example 290],0.1 to 1
9,Cc1ncc(-c2noc([C@H]3C[C@@H]3F)n2)cc1NC(=O)c1cnn2ccc(N3CC4(COC4)C3)cc12 [Example 268],0.1 to 1
10,Cc1ccc(-c2ncc(C3CC3)cn2)cc1NC(=O)c1cnn2cc(-c3cn(C(F)F)nn3)ccc12 [Example 132-13],< 0.1
11,Cc1ccc(-c2noc([C@H]3C[C@@H]3F)n2)c(F)c1NC(=O)c1cnn2ccc(N3CC4(COC4)C3)cc12 [Example 281-65],< 0.1
12,Cc1ccc(-c2noc([C@H]3C[C@@H]3F)n2)cc1NC(=O)c1cnn2ccc(N3CCC4(CC3)CC(C)(O)C4)cc12 [Example 184],< 0.1
13,COCCn1cc(-c2ccn3ncc(C(=O)Nc4cc(-c5noc([C@H]6C[C@@H]6F)n5)ccc4C)c3c2)cn1 [Example 153],< 0.1
14,Cc1ccc(-c2noc([C@H]3C[C@@H]3F)n2)cc1NC(=O)c1cnn2ccc(-c3cnn(C4COC4)c3)cc12 [Example 136],< 0.1
15,Cc1ccc(-c2noc([C@H]3C[C@@H]3F)n2)cc1NC(=O)c1cnc(-c2cccnc2)o1 [Example 285],> 1
16,CC(=O)N1CCC(c2nc(-c3cnc(C)c(NC(=O)c4cnn5ccc(N6CC7(COC7)C6)cc45)c3)no2)C1 (stereo not shown) [Example 281-74],> 1
17,Cc1cc(F)c(-c2noc([C@H]3C[C@@H]3F)n2)cc1NC(=O)c1cnc(-c2ccc3[nH]ncc3c2)o1 [Example 308-11],0.1 to 1
18,Cc1ccc(-c2noc([C@H]3C[C@@H](C(F)(F)F)C3)n2)cc1NC(=O)c1cnc(-c2ccc3c(c2)CC(=O)N3)o1 [Example 308-2],< 0.1
19,Cc1ccc(-c2nc3n(n2)CCN(C(=O)C2CC2)C3)cc1NC(=O)c1cnn2ccc(N3CC4(C3)CC(O)(C(F)F)C4)cc12 [Example 323],> 1
20,Cc1ncc(-c2noc([C@H]3C[C@@H](C(F)(F)F)C3)n2)cc1NC(=O)c1cnn2ccc(N3CC4(C3)CC(O)(C(F)F)C4)cc12 [Example 281-62],< 0.1
